Results reported in ChEMBL document CHEMBL1629480, “Molecular docking and QSAR study on steroidal compounds as aromatase inhibitors” (Eur J Med Chem, 2010).

Molecular target: T1, Aromatase (Homo sapiens, UniProt P11511)
T1 sequence (P11511 whole entry): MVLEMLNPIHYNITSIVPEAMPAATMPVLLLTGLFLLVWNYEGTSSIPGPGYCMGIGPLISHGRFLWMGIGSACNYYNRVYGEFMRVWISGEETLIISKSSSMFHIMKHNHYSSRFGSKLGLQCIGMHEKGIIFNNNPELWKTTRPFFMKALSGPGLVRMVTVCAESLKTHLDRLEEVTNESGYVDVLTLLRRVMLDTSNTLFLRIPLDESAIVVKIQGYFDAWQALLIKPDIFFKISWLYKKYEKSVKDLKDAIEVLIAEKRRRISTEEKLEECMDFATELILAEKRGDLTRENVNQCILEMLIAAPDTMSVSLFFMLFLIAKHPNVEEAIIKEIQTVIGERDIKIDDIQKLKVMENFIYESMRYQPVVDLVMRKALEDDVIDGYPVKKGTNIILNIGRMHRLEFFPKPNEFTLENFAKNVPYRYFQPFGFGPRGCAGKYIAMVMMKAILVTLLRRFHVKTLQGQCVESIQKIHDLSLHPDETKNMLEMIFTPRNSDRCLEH
Experiment: Inhibition of human placental aromatase
Conditions: for pIC50: human

SMILES | IC50 | pIC50
C[C@]12CCC=C[C@@H]1CC[C@@H]1[C@@H]2CC[C@]2(C)C(=O)CC[C@@H]12 | 0.225 µM | 0.648 uM
C[C@]12CCC=C[C@@H]1CC[C@@H]1[C@@H]2CC[C@]2(C)[C@@H](O)CC[C@@H]12 | 30 µM | -1.477 uM
C[C@]12CC[C@H]3O[C@H]3[C@@H]1CC[C@@H]1[C@@H]2CC[C@]2(C)C(=O)CC[C@@H]12 | – | 0.839 uM
C[C@]12CC[C@H]3O[C@H]3[C@@H]1CC[C@@H]1[C@@H]2CC[C@]2(C)[C@@H](O)CC[C@@H]12 | 6.5 µM | -0.813 uM
C[C@]12CC[C@H]3[C@@H](CCC4=CCCC[C@@]43CO)[C@@H]1CCC2=O | – | 1.31 uM
CCCC(=O)OC1=C2CC[C@@H]3[C@H](CC[C@]4(C)C(=O)CC[C@@H]34)[C@@]2(C)CCC1 | 1.5 µM | -0.176 uM
CCCCCC(=O)OC1=C2CC[C@@H]3[C@H](CC[C@]4(C)C(=O)CC[C@@H]34)[C@@]2(C)CCC1 | 1.8 µM | -0.255 uM
C[C@]12CCCC(OC(=O)c3ccccc3)=C1CC[C@@H]1[C@@H]2CC[C@]2(C)C(=O)CC[C@@H]12 | 0.64 µM | 0.194 uM
CC(=O)OC1=C2CC[C@@H]3[C@H](CC[C@]4(C)C(=O)CC[C@@H]34)[C@@]2(C)CCC1 | 0.66 µM | 0.18 uM
CC(=O)OC1=C2CC[C@@H]3[C@H](CC[C@]4(C)C(=O)CC[C@@H]34)[C@@]2(CO)CCC1 | 3.6 µM | -0.556 uM
C[C@]12CC[C@H]3[C@@H](C[C@H](O)C4=CCCC[C@@]43CO)[C@@H]1CCC2=O | 1 µM | -0.146 uM
C[C@]12CC[C@H]3[C@@H](C[C@@H](O)C4=CCCC[C@@]43CO)[C@@H]1CCC2=O | – | 0.027 uM
CC(=O)OC1CCC[C@@]2(C)C1=CC[C@@H]1[C@@H]2CC[C@]2(C)C(=O)CC[C@@H]12 (stereo partly drawn) | – | 0 uM
CC(=O)OC1CCC[C@@]2(CO)C1=CC[C@@H]1[C@@H]2CC[C@]2(C)C(=O)CC[C@@H]12 (stereo partly drawn) | 11 µM | -1.041 uM
CO[C@H]1CCC[C@@]2(CO)C1=CC[C@@H]1[C@@H]2CC[C@]2(C)C(=O)CC[C@@H]12 | – | -2.176 uM
C[C@H]1CCC[C@@]2(C)C1=CC[C@@H]1[C@@H]2CC[C@]2(C)C(=O)CC[C@@H]12 | 1.8 µM | -0.255 uM
CC[C@H]1CCC[C@@]2(C)C1=CC[C@@H]1[C@@H]2CC[C@]2(C)C(=O)CC[C@@H]12 | 4.5 µM | -0.653 uM
CCC[C@H]1CCC[C@@]2(C)C1=CC[C@@H]1[C@@H]2CC[C@]2(C)C(=O)CC[C@@H]12 | 5.5 µM | -0.74 uM
C[C@]12CCCC(=O)[C@@H]1CC[C@@H]1[C@@H]2CC[C@]2(C)C(=O)CC[C@@H]12 | 2.4 µM | -0.38 uM
C[C@]12CC[C@@H](O)C(=O)[C@@H]1CC[C@@H]1[C@@H]2CC[C@]2(C)C(=O)CC[C@@H]12 | – | 0.174 uM
C[C@]12CCC(=O)C(O)=C1CC[C@@H]1[C@@H]2CC[C@]2(C)OC(=O)CC[C@@H]12 | 1.85 µM | -0.267 uM
C[C@]12CC[C@H]3[C@@H](CC=C4CCCC[C@]43C)[C@@H]1CCC2=O | 0.66 µM | –
C[C@]12CCC(=O)C(O)=C1CC[C@@H]1[C@@H]2CC[C@]2(C)C(=O)CC[C@@H]12 [FORMESTANE] | – | 1.377 uM
